Source: patent US20040102325A1, “Phenylpropynyloxypyridine herbicides” (priority 2000, published 2004)

Columns and labels:
Type in all cases: in vivo
Chenopodium = test: Post-emergence herbicidal action, Chenopodium; parameters: key: 1=total damage; 9=no action; conditions: post-emergence (2- to 3-leaf stage), 1000 g a.i/ha, 2 to 3 weeks, scale of nine ratings (1=total damage, 9=no action)
Experimental: (§1) Monocotyledonous and dicotyledonous test plants are sown in standard soil in pots, and at the 2- to 3-leaf stage are sprayed with an aqueous suspension of the test compounds (prepared from a wettable powder (Example F3, b) according to WO 97/34485) or with an emulsion of the test compounds (prepared from an emulsifiable concentrate (Example F1, c) according to WO 97/34485) at an optimum rate of application of 500 litres of water/ha). The test plants are then grown on in the greenhouse under optimum conditions. After a test duration of 2 to 3 weeks, the test is evaluated in accordance with a scale of nine ratings (1=total damage, 9=no action). Ratings of from 1 to 4 (especially from 1 to 3) indicate good to very good herbicidal action. Test plants: Panicum, Euphorbia, Sida, Amaranthus, Chenopodium, Stellaria, Veronica.

Stellaria [1] = test: Pre-emergence herbicidal action, Stellaria; parameters: key: 1=total damage; 9=no action; conditions: 1000 g a.i./ha, 4 weeks, scale of nine ratings (1=total damage, 9=no action)
Text: (§2) Monocotyledonous and dicotyledonous test plants are sown in standard soil in pots. Immediately after sowing, an aqueous suspension of the test compounds (prepared from a wettable powder (Example F3, b) according to WO 97/34485) or an emulsion of the test compounds (prepared from an emulsifiable concentrate (Example F1, c) according to WO 97/34485) is applied by spraying at an optimum rate of application (500 litres of water/ha). The test plants are then cultivated in a greenhouse under optimum conditions. After a test duration of 4 weeks, the test is evaluated in accordance with a scale of nine ratings (1=total damage, 9=no action). Ratings of from 1 to 4 (especially from 1 to 3) indicate good to very good herbicidal action. Test plants: Setaria, Panicum, Digitaria, Amaranthus, Stellaria, Veronica.

Amaranthus [2] = test: Post-emergence herbicidal action, Amaranthus; parameters: key: 1=total damage; 9=no action; conditions: post-emergence (2- to 3-leaf stage), 1000 g a.i/ha, 2 to 3 weeks, scale of nine ratings (1=total damage, 9=no action)
Experimental: as §1

Digitaria = test: Pre-emergence herbicidal action, Digitaria; parameters: key: 1=total damage; 9=no action; conditions: 1000 g a.i./ha, 4 weeks, scale of nine ratings (1=total damage, 9=no action)
Text: as §2

Euphorbia = test: Post-emergence herbicidal action, Euphorbia; parameters: key: 1=total damage; 9=no action; conditions: post-emergence (2- to 3-leaf stage), 1000 g a.i/ha, 2 to 3 weeks, scale of nine ratings (1=total damage, 9=no action)
Experimental: as §1

Setaria = test: Pre-emergence herbicidal action, Setaria; parameters: key: 1=total damage; 9=no action; conditions: 1000 g a.i./ha, 4 weeks, scale of nine ratings (1=total damage, 9=no action)
Text: as §2

Panicum [3] = test: Post-emergence herbicidal action, Panicum; parameters: key: 1=total damage; 9=no action; conditions: post-emergence (2- to 3-leaf stage), 1000 g a.i/ha, 2 to 3 weeks, scale of nine ratings (1=total damage, 9=no action)
Experimental: as §1

Amaranthus [4] = test: Pre-emergence herbicidal action, Amaranthus; parameters: key: 1=total damage; 9=no action; conditions: 1000 g a.i./ha, 4 weeks, scale of nine ratings (1=total damage, 9=no action)
Text: as §2

Panicum [5] = test: Pre-emergence herbicidal action, Panicum; parameters: key: 1=total damage; 9=no action; conditions: 1000 g a.i./ha, 4 weeks, scale of nine ratings (1=total damage, 9=no action)
Text: as §2

Sida = test: Post-emergence herbicidal action, Sida; conditions: post-emergence (2- to 3-leaf stage), 1000 g a.i/ha, 2 to 3 weeks, scale of nine ratings (1=total damage, 9=no action)
Experimental: as §1

Veronica [6] = test: Pre-emergence herbicidal action, Veronica; parameters: key: 1=total damage; 9=no action; conditions: 1000 g a.i./ha, 4 weeks, scale of nine ratings (1=total damage, 9=no action)
Text: as §2

Veronica [7] = test: Post-emergence herbicidal action, Veronica; parameters: key: 1=total damage; 9=no action; conditions: post-emergence (2- to 3-leaf stage), 1000 g a.i/ha, 2 to 3 weeks, scale of nine ratings (1=total damage, 9=no action)
Experimental: as §1

Stellaria [8] = test: Post-emergence herbicidal action, Stellaria; parameters: key: 1=total damage; 9=no action; conditions: post-emergence (2- to 3-leaf stage), 1000 g a.i/ha, 2 to 3 weeks, scale of nine ratings (1=total damage, 9=no action)
Experimental: as §1

Structure (SMILES) | Chenopodium, herbicidal action rating (Chenopodium) | Stellaria, herbicidal action rating (Stellaria [1]) | Amaranthus, herbicidal action rating (Amaranthus [2]) | Digitaria, herbicidal action rating (Digitaria) | Euphorbia, herbicidal action rating (Euphorbia) | Setaria, herbicidal action rating (Setaria) | Panicum, herbicidal action rating (Panicum [3]) | Amaranthus, herbicidal action rating (Amaranthus [4]) | Panicum, herbicidal action rating (Panicum [5]) | Sida, herbicidal action rating (Sida) | Veronica, herbicidal action rating (Veronica [6]) | Veronica, herbicidal action rating (Veronica [7]) | Stellaria, herbicidal action rating (Stellaria [8])
N#CCc1cccc(C#CCOc2ccc(Cl)cn2)c1 [1.007] | 1 | 1 | 1 | 1 | 2 | 5 | 2 | 1 | 1 | 4 | 7 | 1 | 6
N#CCc1cccc(C#CCOc2ccc(Br)cn2)c1 [1.008] | 1 | 4 | 1 | 1 | 2 | 7 | 7 | 1 | 1 | 3 | 1 | 2 | 4
N#CCc1cccc(C#CCOc2ncc(F)cc2F)c1 [1.009] | 1 | 3 | 1 | 1 | 1 | – | 2 | 2 | – | 2 | – | 2 | 2
N#CCc1cccc(C#CCOc2ncc(Cl)cc2F)c1 [1.011] | 1 | 1 | 2 | 1 | 2 | 6 | 2 | 1 | 1 | 2 | 1 | 2 | 2
COc1cc(F)cnc1OCC#Cc1cccc(CC#N)c1 [1.015] | 1 | 1 | 1 | 2 | 1 | 7 | 1 | 1 | 2 | 3 | 4 | 2 | 1
COc1cc(Cl)cnc1OCC#Cc1cccc(CC#N)c1 [1.016] | 1 | 1 | 1 | 1 | 1 | 4 | 2 | 1 | 2 | 2 | 1 | 1 | 1
COc1cc(Br)cnc1OCC#Cc1cccc(CC#N)c1 [1.017] | 1 | 1 | 2 | 2 | 1 | 5 | 4 | 1 | 2 | 2 | 2 | 2 | 1
COc1cc(C)cnc1OCC#Cc1cccc(CC#N)c1 [1.022] | 3 | 2 | 3 | – | 2 | – | 6 | 1 | 2 | 3 | 1 | 3 | 4
Cc1ccc(OC(F)F)c(OCC#Cc2cccc(CC#N)c2)n1 [1.024] | 1 | 1 | 1 | – | 2 | 1 | – | 1 | – | 2 | 1 | 3 | 1
N#CCc1cccc(C#CCOc2ncc(Cl)cc2OC(F)F)c1 [1.025] | 7 | 1 | 2 | 2 | 2 | 1 | – | 1 | 1 | 3 | 1 | 4 | 4
CSc1cccnc1OCC#Cc1cccc(CC#N)c1 [1.047] | 1 | 1 | 2 | 1 | 1 | 1 | 4 | 1 | 2 | 3 | 4 | 3 | 1
COc1cc(Cl)cnc1OCC#Cc1ccccc1 [1.094] | 3 | 1 | 1 | – | 1 | – | 2 | 3 | – | 2 | 1 | 3 | 2
